In paper PMC8271706, “Structural Characterization and Assessment of Anti-Inflammatory and Anti-Tyrosinase Activities of Polyphenols from Melastoma normale” (Molecules, 2021):

Key:
[1] = test system: mushroom tyrosinase; experiment: Anti-tyrosinase activity, L-DOPA as substrate; assay type: biochemical; conditions: for IC50: IC50 ± SD, pH 6.8, read-out: Tyrosinase inhibitory activity IC50
Protocol: All compounds were investigated for potential tyrosinase inhibitory activity.
The anti-tyrosinase activities of the isolates were investigated according to the procedure described by Aoki et al. with slight modifications. […] Solution of L-DOPA at 5.0 mM, mushroom tyrosinase at 100 U/mL, as well as samples at different concentrations were prepared in phosphate buffer (pH 6.8). 20 µL of the sample solution and 10 µL of mushroom tyrosinase solution were mixed and pre-incubated at 37 °C for 10 min, then 40 µL of L-DOPA solution was added and incubated at 37 °C for 5 min. The absorbance was measured at 475 nm using the Spark 10M multimode microplate reader (Tecan Trading AG, Zurich, Switzerland). All assays were repeated three times and each time in triplicate. The percent inhibition of tyrosinase activity was calculated using the following formula:Tyrosinase inhibition (%) = [1 − (T − T0)/(C − C0)] × 100 where T represents the absorbance with sample and tyrosinase; T0 represents the absorbance with sample but no tyrosinase; C represents the absorbance with tyrosinase but no sample; C0 represents the absorbance without tyrosinase and sample.

[2] = test system: LPS-stimulated RAW 264.7 cells; experiment: NO production by LPS-stimulated RAW 264.7 cells (Griess); assay type: cell-based; conditions: Mus musculus, RAW264.7, read-out: IC50 for the inhibition of NO production
Protocol: Four new compounds 1–4 were tested for potential anti-inflammatory activity by measuring the inhibition of the nitric oxide (NO) production. […] The IC50 values for the inhibition of NO production by compounds 1–4 are all > 50 μM. […] From the experimental results and literature data, the flavonoids in the title plant have better anti-inflammatory activity than ellagitannins, it may be the active ingredient corresponding to the anti-inflammatory effect of this plant.
The RAW 264.7 cells were cultivated in DMEM supplemented with 10% FBS at 37 °C in a humidified atmosphere of 5% CO2 for 24 h. Cells in 24-well plate (5 × 10^4 cells/well) were treated with 200 ng/mL LPS and the test compounds. After 22 h, the media were collected, and the level of nitrite was measured using the Griess Reagent System (Promega, Madison, WI, USA).

[3] = cited from earlier work

| tyrosinase inhibitory activity (in words) [1] | IC50 [1] [µM] | IC50 [2] [µM] | Structure (SMILES) | anti-inflammatory activity (in words) [3] |
| --- | --- | --- | --- | --- |
| weak | 426 ± 11.3 | > 50 | CCOC(=O)C1(O)C(=O)C2=C3C(=O)OC(C2OCC)C2OC(=O)c4c(c(O)c(O)c(O)c4C31)-c1c(cc(O)c(O)c1O)C(=O)OC1COC(=O)c3cc(O)c(O)c(O)c3-c3c(cc(O)c(O)c3O)C(=O)OC12 (stereo not drawn) [Compound 1, Whiskey tannin C] |  |
|  | 241 ± 6.23 | > 50 | COc1c(O)cc(C(=O)O[C@@H]2O[C@H](COC(=O)c3cc(O)c(O)c(O)c3)[C@@H](O)[C@@H]3OC(=O)c4cc(O)c(O)c(O)c4-c4c(cc(O)c(O)c4O)C(=O)O[C@@H]23)cc1O [Compound 2, 1-O-(4-methoxygalloyl)-6-O-galloyl-2,3-O-(S)-hexahydroxydiphenoyl-β-D-glucose] |  |
|  | 154 ± 3.63 | > 50 | COc1cc(C(=O)OC[C@H]2O[C@@H](OC(=O)c3cc(O)c(O)c(O)c3)[C@@H]3OC(=O)c4cc(O)c(O)c(O)c4-c4c(cc(O)c(O)c4O)C(=O)O[C@H]3[C@@H]2O)cc(O)c1O [Compound 3, 1-O-galloyl-6-O-(3-methoxygalloyl)-2,3-O-(S)-hexahydroxydiphenoyl-β-D-glucose] |  |
|  | 125 ± 3.12 | > 50 | COc1cc(C(=O)OC[C@H]2O[C@@H](OC(=O)c3cc(O)c(O)c(O)c3)[C@@H]3OC(=O)c4cc(O)c(O)c(O)c4-c4c(cc(O)c(O)c4O)C(=O)O[C@H]3[C@@H]2O)ccc1O [Compound 4, 1-O-galloyl-6-O-vanilloyl-2,3-O-(S)-hexahydroxydiphenoyl-β-D-glucose] |  |
|  | 1900 ± 38.2 |  | O=c1c(O)c(-c2ccc(O)cc2)oc2cc(O)cc(O)c12 [Compound 7, kaempferol] | have anti-inflammatory activity |
| no significant | > 2000 |  | C[C@@H]1O[C@@H](Oc2c(-c3ccc(O)cc3)oc3cc(O)cc(O)c3c2=O)[C@H](O)[C@H](O)[C@H]1O [Compound 8, kaempferol-3-rhamnoside] | have no anti-inflammatory activity |
| significant |  |  | O=c1c(O)c(-c2ccc(O)c(O)c2)oc2cc(O)cc(O)c12 [Compound 10, quercetin] | have anti-inflammatory activity |
| no significant | 905 ± 20.4 |  | C[C@@H]1O[C@@H](Oc2c(-c3cc(O)c(O)c(O)c3)oc3cc(O)cc(O)c3c2=O)[C@H](O)[C@H](O)[C@H]1O [Compound 12, myricetin-3-O-α-L-rhamnopyranoside] | have anti-inflammatory activity |

| Structure (SMILES) | tyrosinase inhibitory activity (in words) [1] | IC50 [1] [µM] | IC50 [2] [µM] | anti-inflammatory activity (in words) [3] |
| --- | --- | --- | --- | --- |
| C[C@@H]1O[C@@H](Oc2c(-c3ccc(O)c(O)c3)oc3cc(O)cc(O)c3c2=O)[C@H](O)[C@H](O)[C@H]1O [Compound 11, quercetin-3-O-α-L-rhamnoside] |  | 98.2 ± 2.31 |  | have no anti-inflammatory activity |
